Literature values as cited in patent publication US20110300232A1, “EFFECTS OF NITRIC OXIDE (NO) AND iNOS ON EXPRESSION AND SIGNAL TRANSDUCTION IN CANCER AND ITS USE IN DRUG DISCOVERY AND CANCER THERAPY DESIGN” (priority 2010, published 2011).

Legend:
HIF-α = conditions: for effect on HIF-α expression: NO donor exposure, FIG. 4A and 4B, MCF-7
[1] = not given; remark: listed apart in the source
p53 = conditions: high levels of NO

## CCN(CC)/[N+]([O-])=N/[O-].[Na+] [DEA/NO]
HIF-α
  effect on HIF-α expression: did not regulate HIF-α expression
other
  duration of NO level provided in media: only an hour

## NCCN(CCN)/[N+]([O-])=N/O [DETA/NO]
HIF-α
  effect on HIF-α expression: stabilizing the HIF-α expression
other
  duration of NO level provided in media: several hours

## [N]=O [NO, Nitric oxide]
HIF-α; low concentration of NO
  NO concentration required for HIF-α stabilization: 100-200 nm
[1]
  half-life in the body: 1 to 5 s
p53
  NO level that stimulates p53 activation, causing apoptosis: more than 500 nm

## NCCCNCCCCN(CCCN)/[N+]([O-])=N/O [Sper/NO]
HIF-α
  effect on HIF-α expression: stabilizing the HIF-α expression
other
  duration of NO level provided in media: several hours
